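Protocol summary: plate cells (96-well), add compound at 5 concentrations, incubate 48 h, interpolate endpoints linearly. The concentration for 50% growth inhibition is given as GI50. Definition used: TGI = concentration required for complete inhibition of growth.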
Key:
Test in all cases: NCI-60 cell line screen, 48 h
A498 renal = tested on: A498 renal
HCT-116 colon = tested on: HCT-116 colon
IGROV1 ovarian = tested on: IGROV1 ovarian
MDA-MB-231 breast = tested on: MDA-MB-231 breast
NCI-H226 lung = tested on: NCI-H226 lung
SF-268 CNS = tested on: SF-268 CNS
TK-10 renal = tested on: TK-10 renal
HCC-2998 colon = tested on: HCC-2998 colon
HOP-62 NSCLC = tested on: HOP-62 NSCLC
MCF7 breast = tested on: MCF7 breast

Row | SMILES | TGI (A498 renal) [µM] | TGI (HCT-116 colon) [µM] | TGI (IGROV1 ovarian) [µM] | TGI (MDA-MB-231 breast) [µM] | TGI (NCI-H226 lung) [µM] | TGI (SF-268 CNS) [µM] | TGI (TK-10 renal) [µM] | TGI (HCC-2998 colon) [µM] | TGI (HOP-62 NSCLC) [µM] | TGI (MCF7 breast) [µM] | GI50 (A498 renal) [µM] | GI50 (HCC-2998 colon) [µM] | GI50 (HOP-62 NSCLC) [µM] | GI50 (IGROV1 ovarian) [µM] | GI50 (MCF7 breast) [µM] | GI50 (MDA-MB-231 breast) [µM] | GI50 (NCI-H226 lung) [µM] | GI50 (SF-268 CNS) [µM] | GI50 (TK-10 renal) [µM]
1 | Cc1c(O)nc(-n2[nH]c3c(c2=O)CCCC3)[nH]c1=O | > 100 | > 100 | > 100 | > 100 | > 100 | > 100 | > 100 |  |  |  |  |  |  |  |  |  |  |  | 
2 | C=C(C(=O)OCC)C(=O)OCC |  | > 100 | > 100 | > 100 | > 100 | > 100 | > 100 | > 100 | > 100 | > 100 |  |  |  |  |  |  |  |  | 
3 | CCCCCCCCCCCCCCCCNc1cccc2ccccc12 |  | > 100 | > 100 |  | > 100 | > 100 | > 100 | > 100 | > 100 |  |  |  |  |  |  |  |  |  | 
4 | CCOC(=O)C1S/C(=N\C(=N)N[N+](=O)[O-])N=C1C (stereo unspecified) | > 100 | > 100 | > 100 |  | > 100 | > 100 | > 100 | > 100 | > 100 |  |  |  |  |  |  |  |  |  | 
5 | S=c1c2cn[nH]c2nc2scc(-c3ccc(Cl)cc3)n12 |  | 27.9 |  | > 100 |  | 42.5 | 31.8 | 32.5 | 40.1 | 36.3 |  |  |  |  |  |  |  |  | 
6 | CC(NC(=O)Cc1ccccc1)NC(=O)C(C)C(=O)Nc1ccccc1 (stereo unspecified) |  | > 100 | > 100 | > 100 | 74.3 | > 100 | > 100 |  |  | > 100 |  |  |  |  |  |  |  |  | 
7 | Cc1c(/C=N\NC(=S)NCCNC(=S)N/N=C\c2c(C)n(C)n(-c3ccccc3)c2=O)c(=O)n(-c2ccccc2)n1C | > 100 | > 100 |  | > 100 | > 100 | > 100 | > 100 | > 100 | > 100 |  |  |  |  |  |  |  |  |  | 
8 | COC(=O)C(Cc1ccc2c(c1)CCC2)Cc1ccc2c(c1)CCC2 | > 100 | > 100 | > 100 | > 100 | > 100 | > 100 | > 100 |  | > 100 | > 100 |  |  |  |  |  |  |  |  | 
9 | CC(=O)NC1C(OCc2ccccc2)OC(CO)C(O)C1OCC(=O)N[C@@H](C)C(=O)N[C@H](CCC(=O)NCCCNc1c2ccccc2nc2cccc([N+](=O)[O-])c12)C(N)=O (stereo partly specified) | 0.944 | 0.034 | 0.606 | 0.45 | 0.287 |  | 1.55 | 0.0301 | 0.576 | 2.42 |  |  |  |  |  |  |  |  | 
10 | CN1CCOC1c1ccccc1O (stereo unspecified) | > 100 | > 100 | > 100 | > 100 | > 100 | > 100 | > 100 |  | > 100 | > 100 |  |  |  |  |  |  |  |  | 
11 | C=C1CC(C#N)(C#N)[C@H]2C3CCCC3C[C@@H]12 (stereo partly specified) (tested in a mixture with another compound) | 48 | 19.4 | > 100 | 55.2 | 61.9 | 61.1 | > 100 |  |  | 29.8 |  |  |  |  |  |  |  |  | 
12 | CC(C)c1cc2c(c(O)c1O)[C@@]1(C(=O)O)CCCC(C)(C)[C@@H]1CC2 |  | > 100 | 36.9 | 86.3 | 29.4 | 41.3 | 31.5 | 28.8 | 65.2 | 45.2 |  |  |  |  |  |  |  |  | 
13 | O=C1OCC/C1=N/O | > 100 | > 100 | > 100 |  | > 100 | > 100 | > 100 | > 100 |  |  |  |  |  |  |  |  |  |  | 
14 | BrC(=C(c1ccc(OC2CCCCO2)cc1)c1ccc(OC2CCCCO2)cc1)c1ccccc1 (stereo unspecified) | > 100 | > 100 | > 100 | > 100 | > 100 | > 100 | > 100 |  | > 100 | > 100 |  |  |  |  |  |  |  |  | 
15 | O=C(CCn1ccnc1[N+](=O)[O-])NCCCn1ccnc1[N+](=O)[O-] | > 100 | > 100 | > 100 | > 100 | > 100 | > 100 | > 100 |  | > 100 | > 100 |  |  |  |  |  |  |  |  | 
16 | CC(O)CNC(=O)C(C)Oc1ccc(OCC2CCCCC2)cc1 (stereo unspecified) | > 100 | > 100 | > 100 |  | > 100 | > 100 | > 100 | > 100 |  |  |  |  |  |  |  |  |  |  | 
17 | NC(=O)c1c(NC(=O)c2ccccc2)sc2c1CCC(=O)C2 | 17.2 |  | 13.3 | 22.9 | 9.1 | > 100 | > 100 | 11 | > 100 | 9.02 | 1.06 | 2.1 | 3.66 | 1.01 | 1.82 | 2.3 | 2.2 | 2.81 | 6.91
18 | O=C(O)[C@H]1CCCN1CP(=O)(O)CN1CCC[C@@H]1C(=O)O |  | > 100 | > 100 | > 100 |  | > 100 |  |  | > 100 | > 100 |  |  |  |  |  |  |  |  | 
19 | CCN1CN(c2ccccc2)C2(CCN(CC3COc4ccccc4O3)CC2)C1=O (stereo unspecified) | 72.5 | 43.7 | > 100 | 4.78 | 94.1 | > 100 | > 100 |  | > 100 | 77.6 |  |  |  |  |  |  |  |  | 
20 | C[N+](C)([O-])CCOc1cc2c(c3ccccc13)-c1ccccc1C2=O | 60.5 | > 68 | 99.8 |  | 78.8 | 36.4 |  | 29.2 | 69.6 | > 100 |  |  |  |  |  |  |  |  | 
21 | C=CCn1c(=O)c(C(=O)Nc2nc(C34CC5CC(CC(C5)C3)C4)cs2)c(O)c2ccccc21 | > 100 | > 100 | > 100 | > 100 | > 100 |  | > 100 | > 100 | > 100 | > 100 |  |  |  |  |  |  |  |  | 
22 | O=P(O)(O)C(N=C(Nc1ccccc1)Nc1ccccc1)P(=O)(O)O |  | > 100 | > 100 | > 100 | > 100 | > 100 | > 100 | > 100 | > 100 | > 100 |  |  |  |  |  |  |  |  | 
23 | Cc1cccc(C)c1NC(=O)C(Cc1c[nH]c2ccccc12)NC(=O)OCc1ccccc1 (stereo unspecified) | 69.8 | > 100 | 73 | 48.2 |  | > 100 | 43.7 |  | > 100 | 95.8 |  |  |  |  |  |  |  |  | 

— PubChem BioAssay (NCI)
